Test results: ChEMBL document CHEMBL5230155, “Recent contributions of quinolines to antimalarial and anticancer drug discovery research” (Eur J Med Chem, 2021)
≈ marks a conversion by molar mass, not a printed value.

What was measured:
[1] = Binding affinity to human nRNP
HeLa = assay: Antitumor activity against human HeLa cells xenografted in mouse assessed as reduction in tumor weight at 20 mg/kg/day, ip for 3 weeks; type: functional; design: scale not given: the % may be the effect or the level left
HepG2 = assay: Cytotoxicity against human HepG2 cells; type: functional, cell-based
SMMC-7721 = assay: Cytotoxicity against human SMMC-7721 cells; type: functional, cell-based
Huh-7 = assay: Cytotoxicity against human Huh-7 cells; type: functional, cell-based
[2] = Cytotoxicity against human L02 cells; type: toxicity, cell-based
[3] = Cytotoxicity against human MRC5 cells; type: toxicity, cell-based
MDA-MB-453 = assay: Antiproliferative activity against human MDA-MB-453 cells; type: functional, cell-based
SNU-423 = assay: Antiproliferative activity against human SNU-423 cells; type: functional, cell-based
RT-112 = assay: Antiproliferative activity against human RT-112 cells; type: functional, cell-based
UMUC3 = assay: Antiproliferative activity against human UMUC3 cells; type: functional, cell-based
RT-4 = assay: Antiproliferative activity against human RT-4 cells; type: functional, cell-based
T-24 = assay: Antiproliferative activity against human T24 cells; type: functional, cell-based
Tubulin = assay: Inhibition of tubulin polymerization (unknown origin); type: protein-complex assay, Homo sapiens
PC-3 [4] = assay: Antiproliferative activity against human PC-3 cells; type: functional, cell-based
KG-1 = assay: Cytotoxicity against human KG-1 cells; type: functional, cell-based
U-937 = assay: Cytotoxicity against human U-937 cells; type: functional, cell-based
Raji = assay: Cytotoxicity against human Raji cells; type: functional, cell-based
MDA-MB-231 = assay: Cytotoxicity against human MDA-MB-231 cells; type: functional, cell-based
CWR22R = assay: Antiproliferative activity against human 22Rv1 cells; type: functional, cell-based
LNCaP C4-2B = assay: Antiproliferative activity against human LNCaP C4-2B cells; type: functional, cell-based
DU-145 = assay: Antiproliferative activity against human DU-145 cells; type: functional, cell-based
PC-3 [5] = assay: Antitumor activity against human PC-3 cells xenografted in nude mouse assessed as cell growth inhibition at 50 mg/kg/day, ig administered for 21 days; type: functional; design: scale not given: the % may be the effect or the level left; conditions: time 21 day
PC-3 [6] = assay: Antitumor activity against human PC-3 cells xenografted in nude mouse assessed as cell growth inhibition at 100 mg/kg/day, ig administered for 21 days; type: functional; design: scale not given: the % may be the effect or the level left; conditions: time 21 day
HCT-116 = assay: Cytotoxicity against human HCT-116 cells; type: functional, cell-based
SK-OV-3 = assay: Antiproliferative activity against human SK-OV-3 cells; type: functional, cell-based
NCI-H460 = assay: Antiproliferative activity against human NCI-H460 cells; type: functional, cell-based
BEL-7404 tumor cell line = assay: Antiproliferative activity against human BEL-7404 cells; type: functional, cell-based
MGC-803 = assay: Antiproliferative activity against human MGC-803 cells
MCF7 = assay: Antiproliferative activity against human MCF7 cells; type: functional, cell-based; conditions: Homo sapiens, MCF7
[7] = target: Prostaglandin G/H synthase 2 (Homo sapiens, UniProt P35354)
Description: Inhibition of COX-2 (unknown origin)

G-361 = assay: Antiproliferative activity against human G-361 cells; type: functional, cell-based; conditions: read-out: IC50

Prostaglandin G/H synthase 2, sequence (P35354 whole entry): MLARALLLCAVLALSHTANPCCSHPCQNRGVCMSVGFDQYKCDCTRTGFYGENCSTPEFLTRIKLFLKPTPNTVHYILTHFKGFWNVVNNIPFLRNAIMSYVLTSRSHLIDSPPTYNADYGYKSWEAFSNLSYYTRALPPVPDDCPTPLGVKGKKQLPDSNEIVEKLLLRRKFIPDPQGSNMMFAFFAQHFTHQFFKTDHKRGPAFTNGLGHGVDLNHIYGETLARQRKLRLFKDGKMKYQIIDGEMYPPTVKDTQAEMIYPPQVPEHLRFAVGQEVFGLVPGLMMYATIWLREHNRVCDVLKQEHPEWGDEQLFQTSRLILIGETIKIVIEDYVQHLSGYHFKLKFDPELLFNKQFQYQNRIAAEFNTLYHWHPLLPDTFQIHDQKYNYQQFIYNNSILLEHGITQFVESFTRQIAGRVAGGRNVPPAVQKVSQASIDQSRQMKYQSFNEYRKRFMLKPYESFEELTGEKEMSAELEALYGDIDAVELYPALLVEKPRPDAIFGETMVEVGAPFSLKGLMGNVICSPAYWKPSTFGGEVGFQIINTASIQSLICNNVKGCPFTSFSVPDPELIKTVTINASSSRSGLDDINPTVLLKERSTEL

COc1ccc(C(=O)/C=C/c2cc(N3CCOCC3)c3cc([N+](=O)[O-])ccc3n2)cc1
Kd [1]: 4600 nM
Activity (HeLa): 69.3%

COc1ccc(/C=N/NC(=O)c2ccc(Nc3ccnc4ccccc34)cc2)cc1OC
IC50 (HepG2; Homo sapiens, HepG2): 126000 nM
IC50 (SMMC-7721): 6300 nM
IC50 (Huh-7): 6300 nM
IC50 [2]: 16100 nM
IC50 [3]: 16100 nM

COc1cc(N(CCCSC(=S)N2CCN(C(C)=O)CC2)S(=O)(=O)c2cccc3cccnc23)cc(OC)c1OC
IC50 (MDA-MB-453): 700 nM
IC50 (SNU-423): 700 nM
IC50 (RT-112): 700 nM
IC50 (UMUC3): 900 nM
IC50 (RT-4): 1900 nM
IC50 (T-24): 2600 nM
IC50 (Tubulin): 2900 nM

O=C(Nc1ccc(NC(=O)c2ccc(Nc3ccnc4ccccc34)cc2)cc1)OCc1ccccc1
IC50 (PC-3 [4]): 300 nM
IC50 (KG-1): 300 nM
IC50 (U-937): 300 nM
IC50 (Raji): 300 nM
IC50 (MDA-MB-231): 300 nM

COc1cc(N(CCSC(=S)N2CCN(CCO)CC2)S(=O)(=O)c2cccc3cccnc23)cc(OC)c1OC
IC50 (Tubulin): 4020 nM
IC50 (PC-3 [4]): 430 nM
IC50 (CWR22R): 670 nM
IC50 (LNCaP C4-2B): 670 nM
IC50 (DU-145): 670 nM
Activity (PC-3 [5]): 35.6%
Activity (PC-3 [6]): 61.4%

O=c1[nH]cc(F)c(=O)[nH]1 [FLUOROURACIL]
IC50 (HepG2; Homo sapiens, HepG2): 5.3 µg/mL
IC50 (HepG2; hepg2): 26300 nM
IC50 (HCT-116): 5.3 µg/mL (≈ 40.7 µM)
IC50 (SK-OV-3): 26300 nM
IC50 (NCI-H460): 26300 nM
IC50 (BEL-7404 tumor cell line): 26300 nM
IC50 (MDA-MB-453): 7400 nM
IC50 (SNU-423): 7400 nM
IC50 (RT-112): 7400 nM
IC50 (MGC-803): 10400 nM
IC50 (PC-3 [4]): 10400 nM

COc1ccc2ccc(F)c(CC(=O)N/N=C/c3cccc(C(F)(F)F)c3)c2n1
IC50 (MCF7): 2070 nM
IC50 [7]: 130 nM
IC50 (G-361): 2070 nM
